Source: PubChem BioAssay (NCI)
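Results reflect a 48-hour exposure of cells in 96-well plates to compound at five concentrations. The concentration for 50% growth inhibition is given as GI50. TGI: concentration producing complete growth inhibition.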

Assays:
Assay in all cases: growth of human tumour cells (NCI), 48 h
MCF7 breast = test system: MCF7 breast
SK-MEL-5 melanoma = test system: SK-MEL-5 melanoma
LOX IMVI melanoma = test system: LOX IMVI melanoma
BT-549 breast = test system: BT-549 breast
UACC-62 melanoma = test system: UACC-62 melanoma
SF-539 CNS = test system: SF-539 CNS
RXF 393 renal = test system: RXF 393 renal
OVCAR-8 ovarian = test system: OVCAR-8 ovarian
UO-31 renal = test system: UO-31 renal
SNB-19 CNS = test system: SNB-19 CNS
PC-3 prostate = test system: PC-3 prostate
MALME-3M melanoma = test system: MALME-3M melanoma
IGROV1 ovarian = test system: IGROV1 ovarian
SK-OV-3 ovarian = test system: SK-OV-3 ovarian
HCC-2998 colon = test system: HCC-2998 colon
M14 melanoma = test system: M14 melanoma
HS 578T breast = test system: HS 578T breast
OVCAR-3 ovarian = test system: OVCAR-3 ovarian
MDA-MB-231 breast = test system: MDA-MB-231 breast
SK-MEL-2 melanoma = test system: SK-MEL-2 melanoma
NCI-H460 lung = test system: NCI-H460 lung
OVCAR-5 ovarian = test system: OVCAR-5 ovarian
DU-145 prostate = test system: DU-145 prostate
OVCAR-4 ovarian = test system: OVCAR-4 ovarian
HCT-15 colon = test system: HCT-15 colon
RPMI-8226 leukemia = test system: RPMI-8226 leukemia
NCI-H23 lung = test system: NCI-H23 lung
A549 NSCLC = test system: A549 NSCLC
HT29 colon = test system: HT29 colon
MOLT-4 leukemia = test system: MOLT-4 leukemia
A498 renal = test system: A498 renal
SN12C renal = test system: SN12C renal
HOP-92 NSCLC = test system: HOP-92 NSCLC
CCRF-CEM leukemia = test system: CCRF-CEM leukemia
SK-MEL-28 melanoma = test system: SK-MEL-28 melanoma
SR leukemia = test system: SR leukemia
EKVX NSCLC = test system: EKVX NSCLC
K-562 leukemia = test system: K-562 leukemia
NCI/ADR-RES ovarian = test system: NCI/ADR-RES ovarian
U251 CNS = test system: U251 CNS
HL-60(TB) leukemia = test system: HL-60(TB) leukemia
CAKI-1 renal = test system: CAKI-1 renal
T-47D breast = test system: T-47D breast
HOP-62 NSCLC = test system: HOP-62 NSCLC
SW-620 colon = test system: SW-620 colon
COLO 205 colon = test system: COLO 205 colon
ACHN renal = test system: ACHN renal
786-0 renal = test system: 786-0 renal
KM12 colon = test system: KM12 colon
HCT-116 colon = test system: HCT-116 colon
UACC-257 melanoma = test system: UACC-257 melanoma
SNB-75 CNS = test system: SNB-75 CNS
NCI-H226 lung = test system: NCI-H226 lung
SF-295 CNS = test system: SF-295 CNS
SF-268 CNS = test system: SF-268 CNS
TK-10 renal = test system: TK-10 renal
NCI-H522 lung = test system: NCI-H522 lung

## O=C(NCCCCNC(=O)OCc1ccc2c(Cl)cc(Cl)c(O)c2n1)OCc1ccc2c(Cl)cc(Cl)c(O)c2n1
MCF7 breast
  GI50: 406 nM
  TGI: > 100000 nM
SK-MEL-5 melanoma
  GI50: 1200 nM
  TGI: 3950 nM
LOX IMVI melanoma
  GI50: 720 nM
  TGI: > 100000 nM
BT-549 breast
  GI50: 2270 nM
  TGI: > 100000 nM
UACC-62 melanoma
  GI50: 2210 nM
  TGI: 86700 nM
SF-539 CNS
  GI50: 288 nM
  TGI: 1400 nM
RXF 393 renal
  GI50: 3380 nM
  TGI: > 100000 nM
OVCAR-8 ovarian
  GI50: 458 nM
  TGI: > 100000 nM
UO-31 renal
  GI50: 1650 nM
  TGI: > 100000 nM
SNB-19 CNS
  GI50: 4700 nM
  TGI: > 100000 nM
PC-3 prostate
  GI50: 1640 nM
  TGI: > 100000 nM
MALME-3M melanoma
  GI50: 2870 nM
  TGI: > 100000 nM
IGROV1 ovarian
  GI50: 1220 nM
  TGI: > 100000 nM
SK-OV-3 ovarian
  GI50: 5120 nM
  TGI: > 100000 nM
HCC-2998 colon
  GI50: 3620 nM
  TGI: > 100000 nM
M14 melanoma
  GI50: 502 nM
  TGI: > 100000 nM
HS 578T breast
  GI50: 979 nM
  TGI: > 100000 nM
OVCAR-3 ovarian
  GI50: 442 nM
  TGI: > 100000 nM
MDA-MB-231 breast
  GI50: 685 nM
  TGI: > 100000 nM
SK-MEL-2 melanoma
  GI50: 1940 nM
  TGI: > 100000 nM
NCI-H460 lung
  GI50: 521 nM
  TGI: > 100000 nM
OVCAR-5 ovarian
  GI50: 47100 nM
  TGI: > 100000 nM
DU-145 prostate
  GI50: 855 nM
  TGI: > 100000 nM
OVCAR-4 ovarian
  GI50: 4470 nM
  TGI: > 100000 nM
HCT-15 colon
  GI50: 890 nM
  TGI: > 100000 nM
RPMI-8226 leukemia
  GI50: 336 nM
  TGI: > 100000 nM
NCI-H23 lung
  GI50: 1830 nM
  TGI: > 100000 nM
A549 NSCLC
  GI50: 6330 nM
  TGI: > 100000 nM
HT29 colon
  GI50: 43700 nM
  TGI: > 100000 nM
MOLT-4 leukemia
  GI50: 591 nM
  TGI: > 100000 nM
A498 renal
  GI50: 295 nM
  TGI: 5230 nM
SN12C renal
  GI50: 762 nM
  TGI: > 100000 nM
HOP-92 NSCLC
  GI50: 3860 nM
  TGI: > 100000 nM
CCRF-CEM leukemia
  GI50: 398 nM
  TGI: > 100000 nM
SK-MEL-28 melanoma
  GI50: 809 nM
  TGI: > 100000 nM
SR leukemia
  GI50: 422 nM
  TGI: > 100000 nM
EKVX NSCLC
  GI50: 10600 nM
  TGI: > 100000 nM
K-562 leukemia
  GI50: 586 nM
  TGI: > 100000 nM
NCI/ADR-RES ovarian
  GI50: 336 nM
  TGI: > 100000 nM
U251 CNS
  GI50: 2840 nM
  TGI: > 100000 nM
HL-60(TB) leukemia
  GI50: 499 nM
  TGI: 2200 nM
CAKI-1 renal
  GI50: 782 nM
  TGI: > 100000 nM
T-47D breast
  GI50: 7610 nM
  TGI: > 100000 nM
HOP-62 NSCLC
  GI50: 2610 nM
  TGI: > 100000 nM
SW-620 colon
  GI50: 486 nM
  TGI: > 100000 nM
COLO 205 colon
  GI50: 24400 nM
  TGI: > 100000 nM
ACHN renal
  GI50: 537 nM
  TGI: > 100000 nM
786-0 renal
  GI50: 4950 nM
  TGI: > 100000 nM
KM12 colon
  GI50: 543 nM
  TGI: > 100000 nM
HCT-116 colon
  GI50: 359 nM
  TGI: > 100000 nM
UACC-257 melanoma
  GI50: 31400 nM
  TGI: > 100000 nM
SNB-75 CNS
  GI50: 1230 nM
  TGI: > 100000 nM
NCI-H226 lung
  GI50: 24300 nM
  TGI: > 100000 nM
SF-295 CNS
  GI50: 4170 nM
  TGI: > 100000 nM
SF-268 CNS
  GI50: 1250 nM
  TGI: > 100000 nM
TK-10 renal
  GI50: 13800 nM
  TGI: > 100000 nM

## COc1cc(-c2nc3ccccc3s2)ccc1OCCCCCOc1cc2c(cc1OC)C(=O)N1CCC[C@H]1C=N2
MCF7 breast
  GI50: 32.4 nM
  TGI: 701 nM
SK-MEL-5 melanoma
  GI50: 59 nM
  TGI: 135 nM
LOX IMVI melanoma
  GI50: 129 nM
  TGI: 7970 nM
BT-549 breast
  GI50: 45.7 nM
  TGI: 126 nM
UACC-62 melanoma
  GI50: 114 nM
  TGI: 265 nM
SF-539 CNS
  GI50: 86.4 nM
  TGI: 286 nM
OVCAR-8 ovarian
  GI50: 168 nM
  TGI: > 69800 nM
SNB-19 CNS
  GI50: 213 nM
  TGI: 4610 nM
PC-3 prostate
  GI50: 103 nM
  TGI: 665 nM
IGROV1 ovarian
  GI50: 244 nM
SK-OV-3 ovarian
  GI50: 177 nM
  TGI: 674 nM
HCC-2998 colon
  GI50: 125 nM
  TGI: 300 nM
M14 melanoma
  GI50: 76.2 nM
  TGI: 257 nM
HS 578T breast
  GI50: 219 nM
  TGI: 600 nM
MDA-MB-231 breast
  GI50: 145 nM
  TGI: 1970 nM
SK-MEL-2 melanoma
  GI50: 201 nM
  TGI: 463 nM
NCI-H460 lung
  GI50: 76.8 nM
  TGI: 2060 nM
OVCAR-5 ovarian
  GI50: 154 nM
  TGI: 7870 nM
DU-145 prostate
  GI50: 104 nM
  TGI: 5310 nM
OVCAR-4 ovarian
  GI50: 264 nM
HCT-15 colon
  GI50: 284 nM
  TGI: 6020 nM
RPMI-8226 leukemia
  GI50: 97.2 nM
  TGI: 424 nM
NCI-H23 lung
  GI50: 114 nM
  TGI: 365 nM
HT29 colon
  GI50: 83.7 nM
  TGI: 4270 nM
MOLT-4 leukemia
  GI50: 41.3 nM
  TGI: 2270 nM
A498 renal
  GI50: 199 nM
  TGI: 358 nM
SN12C renal
  GI50: 256 nM
  TGI: 4540 nM
HOP-92 NSCLC
  GI50: 100 nM
  TGI: 397 nM
CCRF-CEM leukemia
  GI50: 27.5 nM
  TGI: 2160 nM
SK-MEL-28 melanoma
  GI50: 255 nM
NCI-H522 lung
  GI50: 97.4 nM
  TGI: 1140 nM
SR leukemia
  GI50: < 13.2 nM
EKVX NSCLC
  GI50: 364 nM
  TGI: 953 nM
K-562 leukemia
  GI50: 32.1 nM
  TGI: 2230 nM
NCI/ADR-RES ovarian
  GI50: 376 nM
  TGI: 4760 nM
U251 CNS
  GI50: 63.2 nM
  TGI: 7140 nM
HL-60(TB) leukemia
  GI50: 75.7 nM
  TGI: 699 nM
T-47D breast
  GI50: 40.7 nM
  TGI: 160 nM
HOP-62 NSCLC
  GI50: 85.1 nM
  TGI: 950 nM
SW-620 colon
  GI50: 91.2 nM
  TGI: 1030 nM
COLO 205 colon
  GI50: 99.2 nM
  TGI: 332 nM
ACHN renal
  GI50: 53.5 nM
  TGI: 398 nM
786-0 renal
  GI50: 84.3 nM
  TGI: 380 nM
KM12 colon
  GI50: 206 nM
  TGI: 1600 nM
HCT-116 colon
  GI50: 38.7 nM
  TGI: 10100 nM
UACC-257 melanoma
  GI50: 253 nM
  TGI: 1170 nM
SNB-75 CNS
  GI50: 191 nM
  TGI: 779 nM
NCI-H226 lung
  GI50: 212 nM
  TGI: 528 nM
SF-295 CNS
  GI50: 140 nM
  TGI: > 63300 nM
SF-268 CNS
  GI50: 305 nM
  TGI: 3530 nM
TK-10 renal
  GI50: 334 nM
  TGI: 14100 nM
